According to patent US10336757B2, “Treatment of neurodegenerative diseases through inhibition of HSP90” (Sloan-Kettering Institute for Cancer Research, priority 2006, dated 2019):
Where two headings read alike, the source gives them in different places.

Experiments:
[1] = known Hsp90 inhibitors, cited from earlier work
[2] = cited from earlier work
p35 = assay: p35, Tau phosphorylation and Hsp70 in primary rat cortical neurons and COS-7/p35, COS-7/p35/Tau cells; assay type: cell-based; conditions: compared with PU24FC1
Description: Embryonic primary rat cortical neurons and COS-7 cells transfected with cDNAs corresponding to either p35 alone (COS-7/p35) or both p35 and Tau (COS-7/p35/Tau) are relevant experimental systems to study aberrant neuronal kinase activity because phosphorylation of Tau at putative cdk5 sites is both enhanced in these cells and in embryonic and juvenile brains (50, 52) and is similar to that in AD-afflicted brains (50). […]
To further examine the roles played by Hsp90 in tauopathy, we made use of both PU24FC1 and 17-(allyllamino)-17-demethoxygeldanamycin (17AAG) and investigated their effects on both cdk5/p35 and TauP301L in primary neuronal and COS-7 cell cultures. […] After incubation, cells were harvested and lysed in 2% SDS, and the resulting samples were analyzed by Western blotting.
We detected a dose- and time-dependent degradation of p35 by PU24FC1 in primary neurons, as well as in COS-7/p35 and COS-7/p35/Tau cells. […] Reduction of p35 levels by Hsp90 inhibition affected the activity of the cdk5/p35 complex, as measured using a substrate of cdk5, the histone-H1.

P-glycoprotein = P-glycoprotein (Homo sapiens (Human), UniProt P08183); conditions: known Hsp90 inhibitor, cited from earlier work
[3] = test system: tau phosphorylation at pathological sites; assay: Tau phosphorylation in AD cellular models; assay type: cell-based

P-glycoprotein, sequence (P08183 whole entry): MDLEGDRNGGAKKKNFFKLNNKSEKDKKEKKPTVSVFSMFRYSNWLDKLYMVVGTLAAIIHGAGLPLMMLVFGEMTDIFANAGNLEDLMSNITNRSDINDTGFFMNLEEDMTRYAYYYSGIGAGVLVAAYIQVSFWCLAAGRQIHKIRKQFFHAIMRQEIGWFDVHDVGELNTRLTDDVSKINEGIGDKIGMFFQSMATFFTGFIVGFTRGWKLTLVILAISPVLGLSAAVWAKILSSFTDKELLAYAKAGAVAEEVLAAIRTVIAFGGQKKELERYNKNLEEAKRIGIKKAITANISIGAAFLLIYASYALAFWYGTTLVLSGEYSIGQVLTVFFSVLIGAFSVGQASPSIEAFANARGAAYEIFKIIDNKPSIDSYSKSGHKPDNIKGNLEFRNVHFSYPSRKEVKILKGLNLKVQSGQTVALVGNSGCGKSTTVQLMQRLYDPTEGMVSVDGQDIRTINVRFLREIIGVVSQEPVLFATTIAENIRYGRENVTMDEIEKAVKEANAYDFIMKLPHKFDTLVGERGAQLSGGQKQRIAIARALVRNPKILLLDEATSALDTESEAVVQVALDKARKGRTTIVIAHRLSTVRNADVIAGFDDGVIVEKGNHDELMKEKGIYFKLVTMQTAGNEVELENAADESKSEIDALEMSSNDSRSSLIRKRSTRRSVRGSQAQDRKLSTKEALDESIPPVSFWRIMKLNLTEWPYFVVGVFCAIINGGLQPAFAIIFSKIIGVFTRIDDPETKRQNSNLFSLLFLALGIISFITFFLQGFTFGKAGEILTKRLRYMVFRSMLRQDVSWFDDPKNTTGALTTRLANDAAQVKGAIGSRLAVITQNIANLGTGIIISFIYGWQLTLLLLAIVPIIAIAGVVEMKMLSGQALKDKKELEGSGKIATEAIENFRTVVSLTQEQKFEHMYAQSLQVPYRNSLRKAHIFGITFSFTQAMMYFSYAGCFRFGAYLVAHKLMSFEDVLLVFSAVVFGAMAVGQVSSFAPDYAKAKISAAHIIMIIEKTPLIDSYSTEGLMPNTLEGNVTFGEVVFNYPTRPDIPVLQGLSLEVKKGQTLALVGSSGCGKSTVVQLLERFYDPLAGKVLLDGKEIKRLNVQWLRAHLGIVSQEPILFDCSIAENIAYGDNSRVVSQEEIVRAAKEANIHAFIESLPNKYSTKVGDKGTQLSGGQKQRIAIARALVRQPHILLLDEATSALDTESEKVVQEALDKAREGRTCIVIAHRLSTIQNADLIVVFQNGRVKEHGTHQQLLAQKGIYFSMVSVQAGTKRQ

| SMILES | crossing of the blood-brain barrier [1] | solubility [2] | effects on p35 and mTau (p35) | P-gp substrate (P-glycoprotein) | P-gp substrate (P-glycoprotein; listed as 17-AAG) | crossing of the blood-brain barrier ([1]; listed as 17-AAG) | tau phosphorylation levels at pathological sites [3] |
| --- | --- | --- | --- | --- | --- | --- | --- |
| C[C@@H]1C[C@H]2O[C@@H]2/C=C\C=C\C(=O)Cc2c(Cl)c(O)cc(O)c2C(=O)O1 [radicicol] | do not cross the blood-brain barrier | poorly soluble |  |  |  |  |  |
| C=CCNC1=C2C[C@@H](C)C[C@H](OC)[C@H](O)[C@@H](C)/C=C(\C)[C@H](OC(N)=O)[C@@H](OC)/C=C\C=C(/C)C(=O)NC(=CC1=O)C2=O [Compound 17AAG, 17-(allyllamino)-17-demethoxygeldanamycin] | do not cross the blood-brain barrier | poorly soluble | Analogous effects | P-gp substrate | P-glycoprotein substrate | does not effectively cross the blood brain barrier |  |
| COC1=C2C[C@@H](C)C[C@H](OC)[C@H](O)[C@@H](C)/C=C(\C)[C@H](OC(N)=O)[C@@H](OC)/C=C\C=C(/C)C(=O)NC(=CC1=O)C2=O [geldanamycin] | do not cross the blood-brain barrier | poorly soluble |  |  |  |  | reduced |
